Laboratory results: patent US20250051347A1, “BIFUNCTIONAL CHIMERIC HETEROCYCLIC COMPOUND AND USE THEREOF AS ANDROGEN RECEPTOR DEGRADER” (Hinova Pharmaceuticals, Inc., priority 2021, published 2025)
Like-named read-outs stand apart in the source and are kept apart here.

What was measured:
[1] = tested on: 22RV1 cells
Method: • 22RV1 cell lines (Cobioer, CBP6034) • Penicillin-Streptomycin (Hyclone, Cat. No. SV30010) • Cell counting kit-8 (Signalway Antibody, Cat. No. CP002)
Then, two wells were set for each concentration. 20 μL of the diluted compound solution was added to the cell culture well, and then the plate was gently shaken to mix. In addition, the experiment included 3 negative control wells only containing cells and 3 blank control wells only containing culture medium.

[2] = biological target: T1, androgen receptor (AR) splicing variant AR-v7 (Homo sapiens, UniProt P10275); experiment: Degradation activity on androgen receptor splicing variant AR-v7 in 22RV1 cells (ELISA); format: cell-based; details: AR-v7 degradation in 22RV1 cells, 48 h, class symbols
T1 construct: The degradation activity of compounds on AR-v7 in 22RV1 cells; host or cells: 22RV1 cells
T1 sequence (P10275 1-644 isoform P10275-3): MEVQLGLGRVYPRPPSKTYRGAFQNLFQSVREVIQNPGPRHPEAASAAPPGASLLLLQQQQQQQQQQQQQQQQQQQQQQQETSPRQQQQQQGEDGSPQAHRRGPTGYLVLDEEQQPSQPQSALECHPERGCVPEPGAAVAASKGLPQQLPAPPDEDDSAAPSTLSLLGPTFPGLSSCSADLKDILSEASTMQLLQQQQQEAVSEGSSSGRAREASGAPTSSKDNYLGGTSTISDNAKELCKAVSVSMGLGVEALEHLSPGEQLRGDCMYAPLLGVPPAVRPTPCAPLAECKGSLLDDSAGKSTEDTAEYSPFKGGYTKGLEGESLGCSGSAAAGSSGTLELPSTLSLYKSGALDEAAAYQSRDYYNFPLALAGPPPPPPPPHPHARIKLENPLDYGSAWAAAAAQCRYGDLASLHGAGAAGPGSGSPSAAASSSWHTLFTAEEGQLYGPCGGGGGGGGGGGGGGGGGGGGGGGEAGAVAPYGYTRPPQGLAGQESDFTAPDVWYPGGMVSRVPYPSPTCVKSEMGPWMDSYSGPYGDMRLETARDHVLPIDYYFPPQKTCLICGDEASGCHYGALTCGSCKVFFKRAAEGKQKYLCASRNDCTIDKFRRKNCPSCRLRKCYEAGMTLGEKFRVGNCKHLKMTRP

[3] = Homo sapiens, 22Rv1, 144 h, read-out: 22RV1 IC50 (nM), 22RV1 cells, 6 days culture, CCK-8, OD 450 nm
[4] = read-out: 22RV1 IC50, 22RV1 cells, 6 days culture, CCK-8, OD 450 nm

Row | Structure (SMILES) | IC50 [1, 3] | DC50 [2] | IC50 [1, 4]
1 | CC(C)(c1ccc(OCCCNc2ccc3c(c2)C(=O)N(C2CCC(=O)NC2=O)C3=O)cc1)c1ccc(OCc2ccnc(C(N)=O)n2)cc1 (stereo not drawn) [Example 182, 4-((4-(2-(4-(3-((2-(2,6-dioxopiperidin-3-yl)-1,3-dioxoisoindolin-5-yl)amino)propoxy)phenyl)propan-2-yl)phenoxy)methyl)pyrimidin-2-carbonylamine] | 50 nM | 11 to 100 nM | 
2 | CC(C)(c1ccc(OCCCNc2ccc3c(c2)C(=O)N(C2CCC(=O)NC2=O)C3=O)cc1)c1ccc(OCc2nc(CO)co2)cc1 (stereo not drawn) [Example 185, 2-(2,6-dioxopiperidin-3-yl)-5-((3-(4-(2-(4-((4-(hydroxylmethyl)oxazol-2-yl)methoxy)phenyl)propan-2-yl)phenoxy)propyl)amino)isoindolin-1,3-dione] | 56 nM | 11 to 100 nM | 
3 | CNC(=O)c1nccc(COc2ccc(C(C)(C)c3ccc(O[C@H]4C[C@H](Nc5ccc6c(c5)C(=O)N(C5CCC(=O)NC5=O)C6=O)C4)cc3)cc2)n1 (stereo partly drawn) [Example 186, 4-((4-(2-(4-((1r,3r)-3-((2-(2,6-dioxopiperidin-3-yl)-1,3-dioxoisoindolin-5-yl)amino)cyclobutyloxy)phenyl)propan-2-yl)phenoxy)methyl)-N-methylpyrimidin-2-carbonylamine] | 32 nM | 11 to 100 nM | 
4 | CC(C)(c1ccc(O[C@H]2C[C@@H](Nc3ccc4c(c3)C(=O)N(C3CCC(=O)NC3=O)C4=O)C2)cc1)c1ccc(N2CCc3ncnc(N4CC5(COC5)C4)c3C2)cc1 (stereo partly drawn) [Example 194] | 33 nM | 11 to 100 nM | 
5 | Cc1nc(-c2ncc(Oc3ccc(C(C)(C)c4ccc(OC5CC(Nc6ccc7c(c6)C(=O)N(C6CCC(=O)NC6=O)C7=O)C5)cn4)cc3)cn2)no1 (stereo not drawn) [Example 221, 2-(2,6-dioxopiperidin-3-yl)-5-((1r,3r)-3-((6-(2-(4-((2-(5-methyl-1,2,4-oxadiazol-3-yl)pyrimidin-5-yl)oxy)phenyl)propan-2-yl)pyridin-3-yl)oxy)cyclobutyl)amino)isoindolin-1,3-dione] |  | < 10 nM | 6 nM
6 | Cc1nc(COc2ccc(C(C)(C)c3ccc(OCCCNc4ccc5c(c4)C(=O)N(C4CCC(=O)NC4=O)C5=O)cc3)cc2)cs1 (stereo not drawn) [Example 225, 2-(2,6-dioxopiperidin-3-yl)-5-((3-(4-(2-(4-((2-methylthiazol-4-yl)methoxy)phenyl)propan-2-yl)phenoxy)propyl)amino)isoindolin-1,3-dione] | 60 nM | 11 to 100 nM | 
7 | CC(C)(c1ccc(OCCCNc2ccc3c(c2)C(=O)N(C2CCC(=O)NC2=O)C3=O)cc1)c1ccc(OCc2ccnc(-n3ccnn3)n2)cc1 (stereo not drawn) [Example 228, 5-((3-(4-(2-(4-((2-(1H-1,2,3-triazol-1-yl)pyrimidin-4-yl)methoxy)phenyl)propan-2-yl)phenoxy)propyl)amino)-2-(2,6-dioxopiperidin-3-yl)isoindolin-1,3-dione] | 22 nM | 11 to 100 nM | 
8 | CC(C)(c1ccc(OCCCNc2ccc3c(c2)C(=O)N(C2CCC(=O)NC2=O)C3=O)cc1)c1ccc(OCc2ccnc(-n3nccn3)n2)cc1 (stereo not drawn) [Example 229, 5-((3-(4-(2-(4-((2-(2H-1,2,3-triazol-2-yl)pyrimidin-4-yl)methoxy)phenyl)propan-2-yl)phenoxy)propyl)amino)-2-(2,6-dioxopiperidin-3-yl)isoindolin-1,3-dione] | 31 nM | 11 to 100 nM | 
9 | CC(C)(c1ccc(Oc2ccnc(N3CC4(COC4)C3)n2)cc1)c1ccc(O[C@H]2C[C@H](Nc3ccc4c(c3)C(=O)N(C3CCC(=O)NC3=O)C4=O)C2)cc1 (stereo partly drawn) [Example 244, 5-((1r,3r)-3-(4-(2-(4-(4-((2-(2-oxa-6-azaspiro[3.3]heptane-6-yl)pyrimidin-4-yl)oxy)phenyl)propan-2-yl)phenoxy)cyclobutyl)amino)-2-(2,6-dioxopiperidin-3-yl)isoindolin-1,3-dione] | 6 nM | < 10 nM | 
10 | CC(=O)c1nccc(Oc2ccc(C(C)(C)c3ccc(O[C@H]4C[C@H](Nc5ccc6c(c5)C(=O)N(C5CCC(=O)NC5=O)C6=O)C4)cc3)cc2)n1 (stereo partly drawn) [Example 246] | 5 nM | < 10 nM | 
11 | CC(c1nccc(COc2ccc(C(C)(C)c3ccc(O[C@H]4C[C@H](Nc5ccc6c(c5)C(=O)N(C5CCC(=O)NC5=O)C6=O)C4)cc3)cc2)n1)N1CCC1 (stereo partly drawn) [Example 249] | 6 nM | < 10 nM | 
12 | CC(C)(c1ccc(Oc2cccc(-n3nccn3)n2)cc1)c1ccc(O[C@H]2C[C@H](Nc3ccc4c(c3)C(=O)N(C3CCC(=O)NC3=O)C4=O)C2)cc1 (stereo partly drawn) [Example 256, 5-((1r,3r)-3-(4-(2-(4-((6-(2H-1,2,3-triazol-2-yl)pyridin-2-yl)oxy)phenyl)propan-2-ylphenoxy)cyclobutyl)amino)-2-(2,6-dioxopiperidin-3-yl)isoindolin-1,3-dione] | 2 nM | < 10 nM | 
13 | CC(C)(c1ccc(Oc2ccc(N3CC(N4CC(F)C4)C3)nn2)cc1)c1ccc(O[C@H]2C[C@H](Nc3ccc4c(c3)C(=O)N(C3CCC(=O)NC3=O)C4=O)C2)cc1 (stereo partly drawn) [Example 258] | 8 nM | 101 to 1000 nM | 
14 | CC(C)(c1ccc(Oc2cnc(C(N)=O)nc2)cc1)c1ccc(O[C@H]2C[C@H](Nc3ccc4c(c3)C(=O)N(C3CCC(=O)NC3=O)C4=O)C2)cc1 (stereo partly drawn) [Example 265, 5-(4-(2-(4-((1r,3r)-3-((2-(2,6-dioxopiperidin-3-yl)-1,3-dioxoisoindolin-5-yl)amino)cyclobutyloxy)phenyl)propan-2-yl)phenoxy)pyrimidin-2-carbonylamine] | 4 nM | < 10 nM | 
15 | Cn1cc(-c2nccc(COc3ccc(C(C)(C)c4ccc(O[C@H]5C[C@@H](Nc6ccc7c(c6)C(=O)N(C6CCC(=O)NC6=O)C7=O)C5)cc4)cc3)n2)cn1 (stereo partly drawn) [Example 270] | 10 nM | < 10 nM | 

Continued, in another order:

Row | IC50 [1, 3] | DC50 [2] | Structure (SMILES) | IC50 [1, 4]
16 | 5 nM | < 10 nM | Cc1nccc(Oc2ccc(C(C)(C)c3ccc(O[C@H]4C[C@H](Nc5ccc6c(c5)C(=O)N(C5CCC(=O)NC5=O)C6=O)C4)cc3)cc2)n1 (stereo partly drawn) [Example 197] | 
17 | 12 nM | < 10 nM | CC(C)(c1ccc(OCc2nc(N3CC4(COC4)C3)ncc2F)cc1)c1ccc(O[C@H]2C[C@H](Nc3ccc4c(c3)C(=O)N(C3CCC(=O)NC3=O)C4=O)C2)cc1 (stereo partly drawn) [Example 200] | 
18 | 6 nM | < 10 nM | Cc1cnc(N2CC3(COC3)C2)nc1COc1ccc(C(C)(C)c2ccc(O[C@H]3C[C@H](Nc4ccc5c(c4)C(=O)N(C4CCC(=O)NC4=O)C5=O)C3)cc2)cc1 (stereo partly drawn) [Example 204] | 
19 | 16 nM | < 10 nM | CC(C)(c1ccc(Oc2ccc(-n3ccnn3)nc2)cc1)c1ccc(O[C@H]2C[C@H](Nc3ccc4c(c3)C(=O)N(C3CCC(=O)NC3=O)C4=O)C2)cc1 (stereo partly drawn) [Example 207, 5-((1r,3r)-3-(4-(2-(4-((6-(1H-1,2,3-triazol-1-yl)pyridin-3-yl)oxy)phenyl)propan-2-ylphenoxy)cyclobutyl)amino)-2-(2,6-dioxopiperidin-3-yl) isoindolin-1,3-dione] | 
20 | 15 nM | < 10 nM | CC(C)(c1ccc(Oc2cnnc(-n3nccn3)c2)cc1)c1ccc(O[C@H]2C[C@H](Nc3ccc4c(c3)C(=O)N(C3CCC(=O)NC3=O)C4=O)C2)cc1 (stereo partly drawn) [Example 217] | 
21 | 6 nM | < 10 nM | Cc1nnc(-c2cnnc(Oc3ccc(C(C)(C)c4ccc(O[C@H]5C[C@H](Nc6ccc7c(c6)C(=O)N(C6CCC(=O)NC6=O)C7=O)C5)cc4)cc3)c2)o1 (stereo partly drawn) [Example 218] | 
22 | 6 nM | < 10 nM | CC(O)c1ncc(Oc2ccc(C(C)c3ccc(O[C@H]4C[C@H](Nc5ccc6c(c5)C(=O)N(C5CCC(=O)NC5=O)C6=O)C4)cn3)cc2)cn1 (stereo partly drawn) [Example 219] | 
23 | 8 nM | < 10 nM | CC(=O)c1ncc(Oc2ccc(C(C)c3ccc(O[C@H]4C[C@H](Nc5ccc6c(c5)C(=O)N(C5CCC(=O)NC5=O)C6=O)C4)cn3)cc2)cn1 (stereo partly drawn) [Example 220] | 
24 |  | < 10 nM | CC(=O)c1ncc(Oc2ccc(C(C)(C)c3ccc(OC4CC(Nc5ccc6c(c5)C(=O)N(C5CCC(=O)NC5=O)C6=O)C4)cn3)cc2)cn1 (stereo not drawn) [Example 222, 5-((1r,3r)-3-((6-(2-(4-((2-acetylpyrimidin-5-yl)oxy)phenyl)propan-2-yl)pyridin-3-yl)oxy)cyclobutyl)amino)-2-(2,6-dioxopyridin-3-yl)isoindolin-1,3-dione] | 3 nM
25 | 9 nM | < 10 nM | CC(C)(c1ccc(OCc2ccnc(-n3ccnn3)n2)cc1)c1ccc(O[C@H]2C[C@H](Nc3ccc4c(c3)C(=O)N(C3CCC(=O)NC3=O)C4=O)C2)cc1 (stereo partly drawn) [Example 230] | 
26 | 16 nM | < 10 nM | CC(C)(c1ccc(OCc2ccnc(N3CC[C@H](O)C3)n2)cc1)c1ccc(O[C@H]2C[C@@H](Nc3ccc4c(c3)C(=O)N(C3CCC(=O)NC3=O)C4=O)C2)cc1 (stereo partly drawn) [Example 233] | 
27 | 9 nM | < 10 nM | CC(C)(c1ccc(OCc2ccnc(NC3COC3)n2)cc1)c1ccc(O[C@H]2C[C@@H](Nc3ccc4c(c3)C(=O)N(C3CCC(=O)NC3=O)C4=O)C2)cc1 (stereo partly drawn) [Example 237] | 
